Data reported in patent US20080267882A1, “Imaging compounds, methods of making imaging compounds, methods of imaging, therapeutic compounds, methods of making therapeutic compounds, and methods of therapy” (Stanford University, priority 2007, published 2008).

Columns and labels:
[1] = in vivo; settings: mouse, iv, total radioactivity
Description: (§1) PET scans and image analysis were performed using a microPET R4 rodent model scanner (Siemens Medical Solutions) as previously reported (J Nucl Med 2006;47:113-121 and J Nucl Med 2005;46:1707-1718, each of which is incorporated herein by reference for the corresponding discussion). Each mouse was tail-vein injected with about 3.7 MBq (100 μCi) of ^18F-FPRGD2 under isoflurane anesthesia. The 30-min dynamic scan (1×30 s, 4×1 min, 1×1.5 min, 4×2 min, 1×2.5 min, 4×3 min, total of 15 frames) was started 1 min after injection. Five min static PET images were also acquired at 1 h and 2 h post-injection (p.i.). The images were reconstructed by a 2-dimensional ordered-subsets expectation maximum (OSEM) algorithm and no correction was applied for attenuation or scatter.
(§2) PET scans and image analysis were performed using a microPET R4 rodent model scanner (Siemens Medical Solutions) as previously reported. For U87MG tumor model, mice (n=3) were tail-vein injected with about 3.7 MBq (100 μCi) of ^18F-FPRGD4 under isoflurane anesthesia and then subjected to a 30-min dynamic scan (1×30 s, 4×1 min, 1×1.5 min, 4×2 min, 1×2.5 min, 4×3 min, total of 15 frames) starting from 1 min p.i. Five min static PET images were also acquired at 1, 2, and 3 h p.i. The images were reconstructed by 2-dimensional ordered-subsets expectation maximum (OSEM) algorithm. No attenuation or scatter correction was applied. […] The 5-min static PET scans was then acquired at 30 min and 1 h p.i. Multiple time point static scans were also obtained for orthotopic MDA-MB-435, c-neu oncomouse, and subcutaneous DU145 tumor models after tail-vein injected with 3.7 MBq of ^18F-FPRGD4.
(§3) For each microPET scan, regions of interest (ROIs) were drawn over the tumor, normal tissue, and major organs by using vendor software (ASI Pro 5.2.4.0) on decay-corrected whole-body coronal images. The maximum radioactivity concentration (accumulation) within a tumor or an organ was obtained from mean pixel values within the multiple ROI volume, which were converted to counts/mL/min by using a conversion factor. Assuming a tissue density of 1 g/mL, the ROIs were converted to counts/g/min and then divided by the administered activity to obtain an imaging ROI-derived % ID/g. […]
(§4) PET scans and image analysis were performed using a microPET R4 rodent model scanner (Siemens Medical Solutions) as previously reported (J Nucl Med. 2005;46:1707-1718 and J Nucl Med. 2006;47:113-121, each of which is incorporated herein by reference for the corresponding discussion). About 9.3 MBq of ^64Cu-DOTA-RGD multimer was intravenously injected into each mouse under isoflurane anesthesia. Five minute static scans were acquired at 30 min, 1 h, 2 h, 6 h, and 20 h p.i. The images were reconstructed by a 2-dimensional ordered-subsets expectation maximum (OSEM) algorithm and no correction was applied for attenuation and scatter. For each microPET scan, regions of interest (ROIs) were drawn over the tumor, normal tissue, and major organs on decay-corrected whole-body coronal images. The radioactivity concentration (accumulation) within a tumor was obtained from the maximum value within the multiple ROIs and then converted to % ID/g.
(§5) PET scans and image analysis were performed using a microPET R4 rodent model scanner (Siemens Medical Solutions) as previously reported (J Nucl Med. 2006;47:113-21 and J Nucl Med. 2005;46:1707-18, which is incorporated herein by reference for the corresponding discussion). […] The 60-min dynamic scan (5×1 min, 10×3 min, 5×5 min, total of 20 frames) was started 1 min after injection. A 2 h time point static scan was also acquired after the 60 min dynamic scan. Five min static PET images were also acquired separately at 30 min, 1 h and 2 h time points post-injection (p.i.) for another set of tumor-bearing mice (n=3/tracer). The images were reconstructed by a 2-dimensional ordered-subsets expectation maximum (OSEM) algorithm and no correction was necessary for attenuation or scatter correction. […]

[2] = in vivo; settings: female, athymic nude, mouse, total radioactivity
Description: (§6) All mice were sacrificed and dissected at 20 h post-injection (p.i.) of the tracer. Blood, U87MG tumor, major organs and tissues were collected and wet weighed. The radioactivity in the tissue was measured using a γ-counter (Packard). The results were presented as percentage injected dose per gram of tissue (% ID/g).

[3] = in vivo; settings: c-neu oncomouse (MMTV/c-neu transgenic), mouse, iv, total radioactivity
Description: All animal experiments were performed under a protocol approved by Stanford's Administrative Panel on Laboratory Animal Care. […] The c-neu oncomouse (Charles River Laboratories, Charles River, Canada) is a spontaneous tumor-bearing model that carries an activated c-neu oncogene driven by a mouse mammary tumor virus (MMTV) promoter (Cell 1988;54:105-115, which is incorporated herein by reference for the corresponding discussion). Transgenic mice uniformly expressing the MMTV/c-neu gene develop mammary adenocarcinomas between 4 and 8 months postpartum that involve the entire epithelium in each gland. […] Each mouse was tail-vein injected with about 3.7 MBq (100 μCi) of ^18[…]2 under isoflurane anesthesia. The 30-min dynamic scan (1×30 s, 4×1 min, 1×1.5 min, 4×2 min, 1×2.5 min, 4×3 min, total of 15 frames) was started 1 min after injection. Five min static PET images were also acquired at 1 h and 2 h post-injection (p.i.). The images were reconstructed by a 2-dimensional ordered-subsets expectation maximum (OSEM) algorithm and no correction was applied for attenuation or scatter. […] Animal procedures were performed according to a protocol approved by the Stanford University Institutional Animal Care and Use Committee. […] The c-neu oncomouse (Charles River Laboratories, Charles River, Canada) is a spontaneous tumor-bearing model that carries an activated c-neu oncogene driven by a mouse mammary tumor virus (MMTV) promoter (Cell. 1988;54:105-115, which is incorporated herein by reference for the corresponding discussion). Transgenic mice uniformly expressing the MMTV/c-neu gene develop mammary adenocarcinomas between 4 and 8 months postpartum that involve the entire epithelium in each gland. […] PET scans and image analysis were performed using a microPET R4 rodent model scanner (Siemens Medical Solutions) as previously reported. […] Five min static PET images were also acquired at 1, 2, and 3 h p.i. The images were reconstructed by 2-dimensional ordered-subsets expectation maximum (OSEM) algorithm. No attenuation or scatter correction was applied. […] The 5-min static PET scans was then acquired at 30 min and 1 h p.i. […] Animal procedures were performed according to a protocol approved by Stanford University Institutional Animal Care and Use Committee. […] Transgenic mice uniformly expressing the MMTV/c-neu gene develop mammary adenocarcinomas (4 to 8 months postpartum) that involve the entire epithelium in each gland. […] Five minute static scans were acquired at 30 min, 1 h, 2 h, 6 h, and 20 h p.i. […] The radioactivity concentration (accumulation) within a tumor was obtained from the maximum value within the multiple ROIs and then converted to % ID/g.

[4] = test system: U87MG tumor-bearing mice; assay: in vivo; settings: athymic nude, mouse, iv, 3.7 MBq, 1 h
Description: as §1, §2, §3, §4, §5

[5] = in vivo; settings: female, nude, mouse, total radioactivity
Description: as §6, with “1” for “20”, “after injection” for “post-injection (p.i.)”, “Blood,” for “Blood, U87MG”

[6] = female, athymic nude, 10 mg/kg, U87MG tumor uptake with blocking
[7] = female, athymic nude, 9.3 MBq, U87MG tumor uptake
[8] = female, athymic nude, U87MG tumor uptake
[9] = athymic nude, 3.7 MBq, U87MG tumor uptake
[10] = nude, 3.7 MBq, U87MG tumor uptake

With `N=C(N)NCCC[C@@H]1NC(=O)[C@H](CCCCNC(=O)CC[C@H](NC(=O)CC[C@H](NC(=O)CC[C@H](NC(=O)CN2CCN(CC(=O)O)CCN(CC(=O)O)CCN(CC(=O)O)CC2)C(=O)N[C@@H](CCC(=O)N[C@@H](CCC(=O)NCCCC[C@@H]2NC(=O)[C@@H](Cc3ccc(O)cc3)NC(=O)[C@H](CC(=O)O)NC(=O)CNC(=O)[C@H](CCCNC(=N)N)NC2=O)C(=O)NCCCC[C@@H]2NC(=O)[C@@H](Cc3ccc(O)cc3)NC(=O)[C@H](CC(=O)O)NC(=O)CNC(=O)[C@H](CCCNC(=N)N)NC2=O)C(=O)N[C@@H](CCC(=O)NCCCC[C@@H]2NC(=O)[C@@H](Cc3ccc(O)cc3)NC(=O)[C@H](CC(=O)O)NC(=O)CNC(=O)[C@H](CCCNC(=N)N)NC2=O)C(=O)NCCCC[C@@H]2NC(=O)[C@@H](Cc3ccc(O)cc3)NC(=O)[C@H](CC(=O)O)NC(=O)CNC(=O)[C@H](CCCNC(=N)N)NC2=O)C(=O)N[C@@H](CCC(=O)NCCCC[C@@H]2NC(=O)[C@@H](Cc3ccc(O)cc3)NC(=O)[C@H](CC(=O)O)NC(=O)CNC(=O)[C@H](CCCNC(=N)N)NC2=O)C(=O)NCCCC[C@@H]2NC(=O)[C@@H](Cc3ccc(O)cc3)NC(=O)[C@H](CC(=O)O)NC(=O)CNC(=O)[C@H](CCCNC(=N)N)NC2=O)C(=O)NCCCC[C@@H]2NC(=O)[C@@H](Cc3ccc(O)cc3)NC(=O)[C@H](CC(=O)O)NC(=O)CNC(=O)[C@H](CCCNC(=N)N)NC2=O)NC(=O)[C@@H](Cc2ccc(O)cc2)NC(=O)[C@H](CC(=O)O)NC(=O)CNC1=O` [^64Cu-DOTA-RGD octamer, metal not drawn] the tissue uptake at 2 h [1, 6] was 1.7 ± 0.2 %ID/g, the tissue uptake at 6 h [1, 7] was 10.5 ± 0.7 %ID/g and the tissue uptake at 20 h [1, 7] was 10.3 ± 1 %ID/g. It also gave a tissue uptake at 0.5 h [1, 8] of 11.7 ± 0.7 %ID/g, a tissue uptake at 1 h [1, 8] of 10.6 ± 0.7 %ID/g and a tissue uptake at 2 h [1, 8] of 10.6 ± 0.3 %ID/g. For the same compound, the tissue uptake at 20 h [2] was 27 ± 3.5 %ID/g, the tissue uptake at 20 h ([3]; 9.3 MBq) was 6.6 ± 1.5 %ID/g and the tissue uptake at 1 h [3] was 8.9 ± 2.1 %ID/g.
Work on `N=C(N)NCCC[C@@H]1NC(=O)[C@H](CCCCNC(=O)CC[C@H](NC(=S)Nc2ccc(C[C@H]3CN(CC(=O)O)CCN(CC(=O)O)CCN3CC(=O)O)cc2)C(=O)NCCCC[C@@H]2NC(=O)[C@@H](Cc3ccc(O)cc3)NC(=O)[C@H](CC(=O)O)NC(=O)CNC(=O)[C@H](CCCNC(=N)N)NC2=O)NC(=O)[C@@H](Cc2ccc(O)cc2)NC(=O)[C@H](CC(=O)O)NC(=O)CNC1=O` [^68Ga-NOTA-RGD2, metal not drawn] yielded a tissue uptake at 0.5 h [1, 9] of 2.6 ± 0.2 %ID/g, a tissue uptake at 1 h [1, 9] of 2.8 ± 0.11 %ID/g and a tissue uptake at 2 h [1, 9] of 1.7 ± 0.1 %ID/g. It also gave a tissue uptake at 1 h ([1]; athymic nude, 3.7 MBq, kidney uptake) of 2 %ID/g, a tissue uptake at 1 h [1, 6] of 0.31 ± 0.02 %ID/g and a tissue uptake at 5 min [1, 10] of 4.39 %ID/g. For the same compound, the tissue uptake at 0.25 h [1, 10] was 3.46 %ID/g, the tissue uptake at 0.5 h [1, 10] was 2.79 %ID/g and the tissue uptake at 1 h [1, 10] was 2.34 %ID/g. The tissue uptake at 2 h [1, 10] was 1.89 %ID/g, the tissue uptake at 1 h ([1]; nude, 3.7 MBq, kidney uptake) was 4.6 %ID/g and the U87MG tumor uptake [4] was 2.2±0.1 % ID/g. The tissue uptake at 1 h ([5]; 10 mg/kg, tumor uptake with blocking) was 0.21 ± 0.03 %ID/g, the tissue uptake at 1 h ([5]; 3.7 MBq, kidney uptake) was 4.3 ± 0.25 %ID/g and the tissue uptake at 1 h ([5]; 3.7 MBq, tumor uptake) was 3.82 ± 0.7 %ID/g. For the same compound, the tissue uptake at 1 h ([5]; 3.7 MBq, uptake values in the other major organs) was ≤ 1 %ID/g.
